From patent US20160146788A1, “METHOD FOR SCREENING DRUGS FOR TREATING/PREVENTING MYELODYSPLASTIC SYNDROME, ETC” (KYOTO UNIVERSITY, priority 2013, published 2016)

Tested on: hematopoietic progenitor cells induced from MDS-iPS cells
Assay: Colony formation assay of hematopoietic progenitor cells with p38 inhibitor added
Type: cell-based, human
Conditions: 10 μM SB203580 in methylcellulose medium, HPC from MDS-iPSC and Normal iPSC derived from KM5 and KM16, colonies counted after 14 or 15 days, FIG. 19
Procedure: Using a 35 mm culture dish, 2500 cells from the cells of CD43^+CD34^+CD38^− fraction induced to differentiate from iPS cells (abnormal MDS-iPSCs (NonT-iPS) and Normal iPSCs (T-iPS)) and extracted by flow cytometer were seeded in 2 ml of a methylcellulose medium containing SCF, G-CSF, GM-CSF, IL-3, IL-6 and EPO (MethoCult H4435) according to the method of Example 2. After 15 days, the number of the colonies was counted under a microscope. After Cytospin, Wright's staining was performed, and the colony type was identified by microscopic observation.
To study whether the decreased colony-forming ability of hematopoietic progenitor cells induced from MDS-iPS cells is recovered by the effect of p38 inhibitor, colony formation assay was performed by a method similar to Example 3 except that a p38 inhibitor was added. In brief, using a 35 mm culture dish, 2500 cells from the cells of CD43+CD34+CD38-fraction induced to differentiate from iPS cells (MDS-iPSCs (NonT-iPS)) and Normal iPSCs (T-iPS)) and extracted by flow cytometer were seeded in 1.1 ml of a methylcellulose medium containing SCF, G-CSF, GM-CSF, IL-3, IL-6, EPO and 10 μM SB203580 (p38 inhibitor) according to the method of Example 2. After 14 or 15 days, the number of colonies was counted under a microscope. Furthermore, after Cytospin, Wright's staining was performed, and the colony type was identified by microscopic observation.

For `C[S+]([O-])c1ccc(-c2nc(-c3ccncc3)c(-c3ccc(F)cc3)[nH]2)cc1` (centres unmarked) [SB203580], the “colony-forming ability (number of colonies)” value was “colony-forming ability-improving effect” and the “colony-forming ability (number of colonies)” value (listed as p38 inhibitor) was “improving effect on the colony-forming ability”.
